Test results published in PubChem BioAssay (NCI).
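In this assay, cells in 96-well plates receive the compound at five concentrations for 48 hours. Endpoints are linearly interpolated between the surrounding concentrations. Here, GI50 denotes the concentration required for 50% inhibition of growth. At the TGI there is no net growth.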

Tests used:
Experiment in all cases: DTP human tumour cell line panel, 48 h
[1] = test system: 786-0 renal
[2] = test system: A498 renal
[3] = test system: A549 NSCLC
[4] = test system: ACHN renal
[5] = test system: BT-549 breast
[6] = test system: CAKI-1 renal
[7] = test system: CCRF-CEM leukemia
[8] = test system: COLO 205 colon
[9] = test system: DU-145 prostate
[10] = test system: EKVX NSCLC
[11] = test system: HCC-2998 colon
[12] = test system: HCT-116 colon
[13] = test system: HCT-15 colon
[14] = test system: HL-60(TB) leukemia
[15] = test system: HOP-62 NSCLC
[16] = test system: HOP-92 NSCLC
[17] = test system: HS 578T breast
[18] = test system: HT29 colon
[19] = test system: IGROV1 ovarian
[20] = test system: K-562 leukemia
[21] = test system: KM12 colon
[22] = test system: LOX IMVI melanoma
[23] = test system: M14 melanoma
[24] = test system: MALME-3M melanoma
[25] = test system: MCF7 breast
[26] = test system: MDA-MB-231 breast
[27] = test system: MDA-MB-435
[28] = test system: MOLT-4 leukemia
[29] = test system: NCI-H226 lung
[30] = test system: NCI-H23 lung
[31] = test system: NCI-H460 lung
[32] = test system: NCI-H522 lung
[33] = test system: NCI/ADR-RES ovarian
[34] = test system: OVCAR-3 ovarian
[35] = test system: OVCAR-4 ovarian
[36] = test system: OVCAR-5 ovarian
[37] = test system: OVCAR-8 ovarian
[38] = test system: PC-3 prostate
[39] = test system: RPMI-8226 leukemia
[40] = test system: RXF 393 renal
[41] = test system: SF-268 CNS
[42] = test system: SF-295 CNS
[43] = test system: SF-539 CNS
[44] = test system: SK-MEL-2 melanoma
[45] = test system: SK-MEL-28 melanoma
[46] = test system: SK-MEL-5 melanoma
[47] = test system: SK-OV-3 ovarian
[48] = test system: SN12C renal
[49] = test system: SNB-19 CNS
[50] = test system: SNB-75 CNS
[51] = test system: SR leukemia
[52] = test system: SW-620 colon
[53] = test system: T-47D breast
[54] = test system: TK-10 renal
[55] = test system: U251 CNS
[56] = test system: UACC-257 melanoma
[57] = test system: UACC-62 melanoma
[58] = test system: UO-31 renal

`CC12CCCC(CC(=O)c3[nH]c4ccccc4c31)C2` (stereo not given) gave a GI50 [1] of 0.879 µM, a TGI [1] of 18.4 µM and a GI50 [2] of 0.483 µM. It also gave a TGI [2] of 4 µM, a GI50 [3] of 2.26 µM and a TGI [3] of over 55.9 µM. For the same molecule, the GI50 [4] was 0.856 µM, the TGI [4] was over 100 µM and the GI50 [5] was 0.624 µM. The TGI [5] was 12.8 µM, the GI50 [6] was 0.535 µM and the TGI [6] was over 78.8 µM. It also gave a GI50 [7] of 0.459 µM, a TGI [7] of over 100 µM and a GI50 [8] of 1.29 µM. It also gave a TGI [8] of 5.3 µM, a GI50 [9] of 2.04 µM and a TGI [9] of 24.3 µM. It also gave a GI50 [10] of 1.55 µM, a TGI [10] of over 100 µM and a GI50 [11] of 1.79 µM. It also gave a TGI [11] of 24.6 µM, a GI50 [12] of 0.429 µM and a TGI [12] of 18.9 µM. The GI50 [13] was 0.413 µM, the TGI [13] was 24.4 µM and the GI50 [14] was 0.34 µM. For the same molecule, the TGI [14] was 3.94 µM, the GI50 [15] was 0.813 µM and the TGI [15] was 50 µM. For the same molecule, the GI50 [16] was 2.56 µM, the TGI [16] was 36.7 µM and the GI50 [17] was 0.936 µM. The TGI [17] was 37.8 µM, the GI50 [18] was 0.377 µM and the TGI [18] was 6.27 µM. It also gave a GI50 [19] of 0.793 µM, a TGI [19] of over 100 µM and a GI50 [20] of 0.345 µM. It also gave a TGI [20] of over 45.2 µM, a GI50 [21] of 0.641 µM and a TGI [21] of over 54 µM. The GI50 [22] was 0.615 µM, the TGI [22] was 20.9 µM and the GI50 [23] was 0.399 µM. It also gave a TGI [23] of 17.3 µM, a GI50 [24] of 0.916 µM and a TGI [24] of 35.6 µM. The GI50 [25] was 0.4 µM, the TGI [25] was over 56.7 µM and the GI50 [26] was 3.26 µM. It also gave a TGI [26] of 43.1 µM, a GI50 [27] of 0.255 µM and a TGI [27] of 0.949 µM. For the same molecule, the GI50 [28] was 0.492 µM, the TGI [28] was 40.9 µM and the GI50 [29] was 4.23 µM. The TGI [29] was 33.3 µM, the GI50 [30] was 2.07 µM and the TGI [30] was over 63.1 µM. For the same molecule, the GI50 [31] was 1.58 µM, the TGI [31] was 19.7 µM and the GI50 [32] was 0.451 µM. For the same molecule, the TGI [32] was 5.29 µM, the GI50 [33] was 0.439 µM and the TGI [33] was 6.96 µM. For the same molecule, the GI50 [34] was 0.384 µM, the TGI [34] was 2.61 µM and the GI50 [35] was 9.74 µM. For the same molecule, the TGI [35] was over 90.8 µM, the GI50 [36] was 2.82 µM and the TGI [36] was over 100 µM. It also gave a GI50 [37] of 2.01 µM, a TGI [37] of 30.7 µM and a GI50 [38] of 0.698 µM. The TGI [38] was over 100 µM, the GI50 [39] was 0.656 µM and the TGI [39] was 12.7 µM. For the same molecule, the GI50 [40] was 0.629 µM, the TGI [40] was 4.88 µM and the GI50 [41] was 1.94 µM. The TGI [41] was over 65.2 µM, the GI50 [42] was 0.508 µM and the TGI [42] was 7.37 µM. It also gave a GI50 [43] of 0.698 µM, a TGI [43] of 5.75 µM and a GI50 [44] of 1.91 µM. The TGI [44] was over 59.1 µM, the GI50 [45] was 2.03 µM and the TGI [45] was over 100 µM. The GI50 [46] was 0.669 µM, the TGI [46] was 15 µM and the GI50 [47] was 3.53 µM. The TGI [47] was over 76.1 µM, the GI50 [48] was 1.91 µM and the TGI [48] was 20.3 µM. For the same molecule, the GI50 [49] was 1.48 µM, the TGI [49] was over 100 µM and the GI50 [50] was 0.204 µM. For the same molecule, the TGI [50] was 21.7 µM, the GI50 [51] was 0.238 µM and the TGI [51] was 66.1 µM. The GI50 [52] was 0.426 µM, the TGI [52] was over 100 µM and the GI50 [53] was 0.65 µM. The TGI [53] was over 100 µM, the GI50 [54] was 14.6 µM and the TGI [54] was over 90.4 µM. For the same molecule, the GI50 [55] was 0.689 µM, the TGI [55] was 34.7 µM and the GI50 [56] was 15.2 µM. It also gave a TGI [56] of over 100 µM, a GI50 [57] of 0.491 µM and a TGI [57] of over 60.3 µM. For the same molecule, the GI50 [58] was 2.4 µM and the TGI [58] was over 100 µM.

`O=C(CCCSc1nc(-c2ccc(Cl)cc2)cc(-c2ccc(Cl)cc2)n1)NO` gave a GI50 [1] of 0.971 µM, a TGI [1] of 13.1 µM and a GI50 [2] of 1.41 µM. It also gave a TGI [2] of 4.26 µM, a GI50 [3] of 1.59 µM and a TGI [3] of 12.4 µM. For the same molecule, the GI50 [4] was 0.387 µM, the TGI [4] was 10.4 µM and the GI50 [5] was 3.21 µM. For the same molecule, the TGI [5] was 18.6 µM, the GI50 [6] was 0.334 µM and the TGI [6] was 10.7 µM. The GI50 [7] was 0.517 µM, the TGI [7] was over 100 µM and the GI50 [8] was 2.06 µM. It also gave a TGI [8] of 6.21 µM, a GI50 [9] of 0.665 µM and a TGI [9] of 8.94 µM. For the same molecule, the GI50 [10] was 1.14 µM, the TGI [10] was 12.7 µM and the GI50 [11] was 2.78 µM. It also gave a TGI [11] of 10.3 µM, a GI50 [12] of 0.532 µM and a TGI [12] of 17 µM. For the same molecule, the GI50 [13] was 0.385 µM, the TGI [13] was 11.9 µM and the GI50 [14] was 1.61 µM. It also gave a TGI [14] of 8 µM, a GI50 [15] of 0.618 µM and a TGI [15] of 11.9 µM. The GI50 [16] was 2.51 µM, the TGI [16] was 11.7 µM and the GI50 [17] was 4.63 µM. The TGI [17] was 22.8 µM, the GI50 [18] was 1.14 µM and the TGI [18] was 60 µM. The GI50 [19] was 1.15 µM, the TGI [19] was 11.2 µM and the GI50 [20] was 0.727 µM. For the same molecule, the TGI [20] was over 100 µM, the GI50 [21] was 1.96 µM and the TGI [21] was 11.3 µM. For the same molecule, the GI50 [22] was 0.222 µM, the TGI [22] was 1.44 µM and the GI50 [24] was 2.25 µM. It also gave a TGI [24] of 11.6 µM, a GI50 [25] of 1.23 µM and a TGI [25] of 12.4 µM. It also gave a GI50 [26] of 1.71 µM, a TGI [26] of 13.2 µM and a GI50 [27] of 2.81 µM. It also gave a TGI [27] of 17 µM, a GI50 [28] of 0.76 µM and a TGI [28] of over 100 µM. It also gave a GI50 [29] of 2.17 µM, a TGI [29] of 11.6 µM and a GI50 [30] of 1.63 µM. It also gave a TGI [30] of 10.4 µM, a GI50 [31] of 0.44 µM and a TGI [31] of 4.11 µM. For the same molecule, the GI50 [32] was 1.27 µM, the TGI [32] was 8.11 µM and the GI50 [33] was 0.31 µM. For the same molecule, the TGI [33] was 1.9 µM, the GI50 [34] was 0.413 µM and the TGI [34] was 2.14 µM. For the same molecule, the GI50 [35] was 0.603 µM, the TGI [35] was 14.1 µM and the GI50 [36] was 1.42 µM. For the same molecule, the TGI [36] was 9.01 µM, the GI50 [37] was 0.558 µM and the TGI [37] was 28.6 µM. For the same molecule, the GI50 [38] was 1.21 µM, the TGI [38] was 16.1 µM and the GI50 [39] was 1.38 µM. The TGI [39] was 36.7 µM, the GI50 [40] was 0.347 µM and the TGI [40] was 1.86 µM. It also gave a GI50 [41] of 1.21 µM, a TGI [41] of 7.72 µM and a GI50 [42] of 1.17 µM. It also gave a TGI [42] of 6.9 µM, a GI50 [43] of 1.26 µM and a TGI [43] of 4.93 µM. The GI50 [44] was 4.02 µM, the TGI [44] was 20.4 µM and the GI50 [45] was 3.15 µM. It also gave a TGI [45] of 17 µM, a GI50 [46] of 1.86 µM and a TGI [46] of 4.06 µM. The GI50 [47] was 2.02 µM, the TGI [47] was 11.8 µM and the GI50 [48] was 0.513 µM. It also gave a TGI [48] of 7.22 µM, a GI50 [49] of 1.92 µM and a TGI [49] of 13.2 µM. It also gave a GI50 [50] of 2.1 µM, a TGI [50] of 12 µM and a GI50 [51] of 0.339 µM. The TGI [51] was 13 µM, the GI50 [52] was 0.838 µM and the TGI [52] was 11.5 µM. It also gave a GI50 [53] of 1.37 µM, a TGI [53] of 16.7 µM and a GI50 [54] of 0.853 µM. For the same molecule, the TGI [54] was 17.2 µM, the GI50 [55] was 0.693 µM and the TGI [55] was 13 µM. The GI50 [56] was 2.92 µM, the TGI [56] was 18.2 µM and the GI50 [57] was 0.946 µM. The TGI [57] was 3.1 µM, the GI50 [58] was 0.32 µM and the TGI [58] was 2.35 µM.
